Assay results published in paper PMC10711598, “Erythromycin, retapamulin, pyridoxine, folic acid, and ivermectin inhibit cytopathic effect, papain-like protease, and M^PRO enzymes of SARS-CoV-2” (Frontiers in Cellular and Infection Microbiology, 2023).
pIC50: −log10 of the molar value.

Tests used:
[1] = target: SARS-CoV-2 papain-like protease (Severe acute respiratory syndrome coronavirus 2, UniProt P0DTD1); test: SensoLyte 520 SARS-CoV-2 papain-like protease activity assay; assay type: biochemical; details: for Maximal inhibition of PP (%): maximal observed within tested dose range (2.5-10 µM; pyridoxine 5-20 µM); for Dose at maximal observed inhibition of PP: within tested dose range
[2] = target: SARS-CoV-2 main protease (MPRO or 3CL) (Severe acute respiratory syndrome coronavirus 2, UniProt P0DTD1); test: SensoLyte 520 SARS-CoV-2 MPRO activity assay; assay type: biochemical; details: for Maximal inhibition of MPRO (%): maximal observed within tested dose range (2.5-10 µM; pyridoxine 5-20 µM); for Dose at maximal observed inhibition of MPRO: within tested dose range
SARS-CoV-2 [3] = test: Inhibition of SARS-CoV-2-induced CPE in Vero cells (neutral red assay); assay type: cell-based; details: for Maximal inhibition of CPE (%): MOI 0.1, 48 h, maximal observed within tested dose range (5-10 µM; pyridoxine 10-20 µM); for pIC50: Severe acute respiratory syndrome coronavirus 2, three-parameter model, responses constrained to 0-100%; for Dose at maximal observed inhibition of CPE: within tested dose range
Vero cells = test: Toxicity of the drugs alone to Vero cells (cell toxicity study); details: all tested doses
SARS-CoV-2 [4] = system: SARS-CoV-2; design: method as in Caly et al., 2020; details: inhibition of viral replication; ref Caly et al., 2020; cited from earlier work

## CC[C@H]1OC(=O)[C@H](C)[C@@H](O[C@H]2C[C@@](C)(OC)[C@@H](O)[C@H](C)O2)[C@H](C)[C@@H](O[C@@H]2O[C@H](C)C[C@H](N(C)C)[C@H]2O)[C@](C)(O)C[C@@H](C)C(=O)[C@H](C)[C@@H](O)[C@]1(C)O [Erythromycin]
[1]
  Maximal inhibition of PP (%): 29.46%
  Dose at maximal observed inhibition of PP: 10.0 µM
[2]
  Maximal inhibition of MPRO (%): 30.51%
  Dose at maximal observed inhibition of MPRO: 2.5 µM
SARS-CoV-2 [3]
  Maximal inhibition of CPE (%): 76%
  pIC50: 5.49
  Dose at maximal observed inhibition of CPE: 10 µM

## Nc1nc2ncc(CNc3ccc(C(=O)N[C@@H](CCC(=O)O)C(=O)O)cc3)nc2c(=O)[nH]1 [Folic Acid]
[1]
  Maximal inhibition of PP (%): 31.99%
  Dose at maximal observed inhibition of PP: 5 µM
[2]
  Maximal inhibition of MPRO (%): 26.8%
  Dose at maximal observed inhibition of MPRO: 2.5 µM
Vero cells
  Toxicity to Vero cells: not found to be toxic
SARS-CoV-2 [3]
  Maximal inhibition of CPE (%): 42%
  Dose at maximal observed inhibition of CPE: 5 µM

## Cc1ncc(CO)c(CO)c1O [Pyridoxine]
[1]
  Maximal inhibition of PP (%): 17.46%
  Dose at maximal observed inhibition of PP: 20.0 µM
[2]
  Maximal inhibition of MPRO (%): 45.17%
  Dose at maximal observed inhibition of MPRO: 20.0 µM
SARS-CoV-2 [3]
  Maximal inhibition of CPE (%): 63%
  pIC50: 5.03
  Dose at maximal observed inhibition of CPE: 20 µM

## C=C[C@]1(C)C[C@@H](OC(=O)CS[C@@H]2C[C@H]3CC[C@@H](C2)N3C)[C@]2(C)[C@H](C)CC[C@]3(CCC(=O)[C@H]32)[C@@H](C)[C@@H]1O [Retapamulin]
[1]
  Maximal inhibition of PP (%): 20.60%
  Dose at maximal observed inhibition of PP: 5 µM
[2]
  Maximal inhibition of MPRO (%): 33.37%
  Dose at maximal observed inhibition of MPRO: 2.5 µM
SARS-CoV-2 [3]
  Maximal inhibition of CPE (%): 75%
  pIC50: 5.37
  Dose at maximal observed inhibition of CPE: 7.5 µM

## Ivermectin
[1]
  Maximal inhibition of PP (%): 34.34%
  Dose at maximal observed inhibition of PP: 10 µM
[2]
  Maximal inhibition of MPRO (%): 38.07%
  Dose at maximal observed inhibition of MPRO: 5.0 µM
SARS-CoV-2 [4]
  Reduction in viral load: up to 5,000 fold
SARS-CoV-2 [3]
  Maximal inhibition of CPE (%): 10%
